From ChEMBL document CHEMBL1201862, “PubChem BioAssay data set” (2004)
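Step 1: Grow cells in 96-well plates. Step 2: Expose to compound for 48 hours at 5 concentrations. Step 3: Interpolate endpoints linearly; if unreached, use highest concentration. The concentration for 50% growth inhibition is given as GI50.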 Active and inactive are the calls of the source. Cut-off read from the data, not from the text of the source: active = GI50 up to about 1.1 µM and inactive = higher.

Experiments:
Assay in all cases: NCI tumour cell line growth inhibition, 48 h
HCT-116 = system: HCT-116
CAKI-1 = system: CAKI-1
NCI-H23 = system: NCI-H23
UACC-62 = system: UACC-62
SF-539 = system: SF-539
Hs-578T = system: Hs-578T
NCI/ADR-RES = system: NCI/ADR-RES
EKVX = system: EKVX
K562 = system: K562
U-251 = system: U-251
OVCAR-5 = system: OVCAR-5
SN12C = system: SN12C
BT-549 = system: BT-549
CCRF-CEM = system: CCRF-CEM
COLO 205 = system: COLO 205
HCC 2998 = system: HCC 2998
KM12 = system: KM12
SF-268 = system: SF-268
MDA-MB-231 = system: MDA-MB-231
LOX IMVI = system: LOX IMVI
SW-620 = system: SW-620
HCT-15 = system: HCT-15
SK-OV-3 = system: SK-OV-3
HL-60 = system: HL-60
NCI-H460 = system: NCI-H460
HT-29 = system: HT-29
OVCAR-8 = system: OVCAR-8
M14 = system: M14
Malme-3M = system: Malme-3M
TK-10 = system: TK-10
A549 = system: A549
OVCAR-3 = system: OVCAR-3
MDA-N = system: MDA-N
SF-295 = system: SF-295
T47D = system: T47D
RPMI-8226 = system: RPMI-8226
MOLT-4 = system: MOLT-4
RXF 393 = system: RXF 393
DU-145 = system: DU-145
SNB-19 = system: SNB-19
HOP-92 = system: HOP-92
SNB-75 = system: SNB-75
NCI-H226 = system: NCI-H226
UACC-257 = system: UACC-257
PC-3 = system: PC-3
UO-31 = system: UO-31
SR = system: SR
ACHN = system: ACHN
SK-MEL-5 = system: SK-MEL-5
A498 = system: A498
MDA-MB-435 = system: MDA-MB-435
786-0 = system: 786-0
MCF7 = system: MCF7
IGROV-1 = system: IGROV-1
HOP-62 = system: HOP-62
OVCAR-4 = system: OVCAR-4
SK-MEL-2 = system: SK-MEL-2
SK-MEL-28 = system: SK-MEL-28
NCI-H522 = system: NCI-H522

OC1CSc2nc3ccccc3n2C1 (stereo not given)
GI50 (HCT-116): > 100 µM (inactive) | GI50 (CAKI-1): > 100 µM (inactive) | GI50 (NCI-H23): > 100 µM (inactive) | GI50 (UACC-62): > 100 µM (inactive) | GI50 (SF-539): > 100 µM (inactive) | GI50 (Hs-578T): 23.8 µM (inactive) | GI50 (NCI/ADR-RES): > 100 µM (inactive) | GI50 (EKVX): > 100 µM (inactive) | GI50 (K562): > 100 µM (inactive) | GI50 (U-251): > 100 µM (inactive) | GI50 (OVCAR-5): > 100 µM (inactive) | GI50 (SN12C): > 100 µM (inactive) | GI50 (BT-549): > 100 µM (inactive) | GI50 (CCRF-CEM): > 100 µM (inactive) | GI50 (COLO 205): > 100 µM (inactive) | GI50 (HCC 2998): > 100 µM (inactive) | GI50 (KM12): > 100 µM (inactive) | GI50 (SF-268): > 100 µM (inactive) | GI50 (MDA-MB-231): > 100 µM (inactive) | GI50 (LOX IMVI): > 100 µM (inactive) | GI50 (SW-620): > 100 µM (inactive) | GI50 (HCT-15): > 100 µM | GI50 (SK-OV-3): > 100 µM (inactive) | GI50 (HL-60): > 100 µM (inactive) | GI50 (NCI-H460): > 100 µM (inactive) | GI50 (HT-29): > 100 µM (inactive) | GI50 (OVCAR-8): > 100 µM (inactive) | GI50 (M14): > 100 µM (inactive) | GI50 (Malme-3M): > 100 µM (inactive) | GI50 (TK-10): > 100 µM (inactive) | GI50 (A549): > 100 µM (inactive) | GI50 (OVCAR-3): > 100 µM (inactive) | GI50 (MDA-N): > 100 µM (inactive) | GI50 (SF-295): > 100 µM (inactive) | GI50 (T47D): > 100 µM (inactive) | GI50 (RPMI-8226): > 100 µM (inactive) | GI50 (MOLT-4): > 100 µM (inactive) | GI50 (RXF 393): > 100 µM (inactive) | GI50 (DU-145): > 100 µM (inactive) | GI50 (SNB-19): > 100 µM (inactive) | GI50 (HOP-92): > 100 µM (inactive) | GI50 (SNB-75): 17.9 µM (inactive) | GI50 (NCI-H226): > 100 µM (inactive) | GI50 (UACC-257): > 100 µM (inactive) | GI50 (PC-3): > 100 µM (inactive) | GI50 (UO-31): > 100 µM (inactive) | GI50 (SR): > 100 µM (inactive) | GI50 (ACHN): > 100 µM (inactive) | GI50 (SK-MEL-5): > 100 µM (inactive) | GI50 (A498): > 100 µM (inactive) | GI50 (MDA-MB-435): > 100 µM (inactive) | GI50 (786-0): > 100 µM (inactive) | GI50 (MCF7): > 100 µM (inactive) | GI50 (IGROV-1): > 100 µM (inactive)

c1ccc(CN2CCC3(CC2)SSC2(CCN(Cc4ccccc4)CC2)SS3)cc1
GI50 (HCT-116): > 100 µM (inactive) | GI50 (CAKI-1): > 100 µM (inactive) | GI50 (NCI-H23): 79.1 µM (inactive) | GI50 (UACC-62): > 100 µM (inactive) | GI50 (SF-539): > 100 µM (inactive) | GI50 (Hs-578T): > 100 µM (inactive) | GI50 (NCI/ADR-RES): > 100 µM (inactive) | GI50 (EKVX): 12.9 µM (inactive) | GI50 (K562): > 100 µM (inactive) | GI50 (U-251): > 100 µM (inactive) | GI50 (OVCAR-5): > 100 µM (inactive) | GI50 (SN12C): > 100 µM (inactive) | GI50 (HOP-62): > 100 µM (inactive) | GI50 (BT-549): > 100 µM (inactive) | GI50 (COLO 205): 64 µM (inactive) | GI50 (HCC 2998): 45.5 µM (inactive) | GI50 (OVCAR-4): > 100 µM (inactive) | GI50 (KM12): > 100 µM (inactive) | GI50 (SF-268): > 100 µM (inactive) | GI50 (MDA-MB-231): > 100 µM (inactive) | GI50 (LOX IMVI): > 100 µM (inactive) | GI50 (SW-620): 5.48 µM (inactive) | GI50 (HCT-15): > 100 µM | GI50 (SK-OV-3): > 100 µM (inactive) | GI50 (NCI-H460): > 100 µM (inactive) | GI50 (HT-29): 27.2 µM (inactive) | GI50 (OVCAR-8): > 100 µM (inactive) | GI50 (M14): > 100 µM (inactive) | GI50 (Malme-3M): 97.5 µM (inactive) | GI50 (TK-10): > 100 µM (inactive) | GI50 (A549): > 100 µM (inactive) | GI50 (OVCAR-3): > 100 µM (inactive) | GI50 (MDA-N): > 100 µM (inactive) | GI50 (SF-295): > 100 µM (inactive) | GI50 (SK-MEL-2): > 100 µM (inactive) | GI50 (T47D): > 100 µM (inactive) | GI50 (RPMI-8226): > 100 µM (inactive) | GI50 (MOLT-4): > 100 µM (inactive) | GI50 (RXF 393): > 100 µM (inactive) | GI50 (DU-145): > 100 µM (inactive) | GI50 (SNB-19): > 100 µM (inactive) | GI50 (HOP-92): > 100 µM (inactive) | GI50 (SNB-75): > 100 µM (inactive) | GI50 (NCI-H226): > 100 µM (inactive) | GI50 (SK-MEL-28): 34.9 µM (inactive) | GI50 (NCI-H522): 37 µM (inactive) | GI50 (UACC-257): 59.7 µM (inactive) | GI50 (PC-3): > 100 µM (inactive) | GI50 (UO-31): > 100 µM (inactive) | GI50 (SR): 83.2 µM (inactive) | GI50 (ACHN): > 100 µM (inactive) | GI50 (SK-MEL-5): 57.3 µM (inactive) | GI50 (A498): > 100 µM (inactive) | GI50 (MDA-MB-435): > 100 µM (inactive) | GI50 (786-0): > 100 µM (inactive) | GI50 (MCF7): > 100 µM (inactive) | GI50 (IGROV-1): > 100 µM (inactive)

C=C1CN(C(=O)c2cc3cc(OC)c(OC)c(OC)c3[nH]2)c2cc([N+](=O)[O-])ccc21
GI50 (HCT-116): > 100 µM (inactive) | GI50 (CAKI-1): > 100 µM (inactive) | GI50 (NCI-H23): 65 µM (inactive) | GI50 (UACC-62): > 100 µM (inactive) | GI50 (SF-539): > 100 µM (inactive) | GI50 (Hs-578T): 4.47 µM (inactive) | GI50 (NCI/ADR-RES): > 100 µM (inactive) | GI50 (EKVX): > 100 µM (inactive) | GI50 (K562): > 100 µM (inactive) | GI50 (U-251): 19.1 µM (inactive) | GI50 (OVCAR-5): > 100 µM (inactive) | GI50 (SN12C): > 100 µM (inactive) | GI50 (BT-549): 61.2 µM (inactive) | GI50 (COLO 205): > 100 µM (inactive) | GI50 (HCC 2998): > 100 µM (inactive) | GI50 (OVCAR-4): > 100 µM (inactive) | GI50 (KM12): > 100 µM (inactive) | GI50 (SF-268): 15.5 µM (inactive) | GI50 (MDA-MB-231): 17.5 µM (inactive) | GI50 (LOX IMVI): > 100 µM (inactive) | GI50 (SW-620): > 100 µM (inactive) | GI50 (HCT-15): > 100 µM | GI50 (SK-OV-3): 33.2 µM (inactive) | GI50 (HL-60): > 100 µM (inactive) | GI50 (NCI-H460): > 100 µM (inactive) | GI50 (HT-29): > 100 µM (inactive) | GI50 (OVCAR-8): > 100 µM (inactive) | GI50 (M14): > 100 µM (inactive) | GI50 (Malme-3M): > 100 µM (inactive) | GI50 (TK-10): 26.5 µM (inactive) | GI50 (A549): > 100 µM (inactive) | GI50 (OVCAR-3): > 100 µM (inactive) | GI50 (MDA-N): > 100 µM (inactive) | GI50 (SK-MEL-2): 34.8 µM (inactive) | GI50 (T47D): > 100 µM (inactive) | GI50 (RPMI-8226): > 100 µM (inactive) | GI50 (MOLT-4): 69.3 µM (inactive) | GI50 (RXF 393): 14.6 µM (inactive) | GI50 (DU-145): > 100 µM (inactive) | GI50 (SNB-19): 45.8 µM (inactive) | GI50 (HOP-92): 33.8 µM (inactive) | GI50 (SNB-75): 51.1 µM (inactive) | GI50 (NCI-H226): > 100 µM (inactive) | GI50 (SK-MEL-28): > 100 µM (inactive) | GI50 (UACC-257): > 100 µM (inactive) | GI50 (PC-3): > 100 µM (inactive) | GI50 (UO-31): > 100 µM (inactive) | GI50 (SR): > 100 µM (inactive) | GI50 (SK-MEL-5): > 100 µM (inactive) | GI50 (A498): 64.4 µM (inactive) | GI50 (MDA-MB-435): > 100 µM (inactive) | GI50 (786-0): 30.5 µM (inactive) | GI50 (MCF7): > 100 µM (inactive) | GI50 (IGROV-1): > 100 µM (inactive)
